Experimental findings from PubChem BioAssay (NCI) are described below.

Test systems include SK-OV-3 ovarian; RXF 393 renal; SN12C renal; NCI-H522 lung; SR leukemia; HT29 colon; ACHN renal; SF-295 CNS; MOLT-4 leukemia; MDA-MB-435.
Experiment in all cases: growth of human tumour cells (NCI), 48 h

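1) Cells in 96-well plates. 2) Compound, 48 h, 5 concentrations. 3) Linear interpolation between surrounding doses. 4) Unreached endpoint = highest concentration. TGI is the concentration that stops growth completely.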 Bounds are passed on as bounds.

`Cc1ccc(/C=N/n2c(-c3ccc(C)cc3)n[nH]c2=O)cc1`: the TGI is 66.9 µM with SK-OV-3 ovarian; 72.9 µM in the assay with RXF 393 renal; above 100 µM in the assay with SN12C renal; above 100 µM in the assay with NCI-H522 lung; 61.3 µM in the assay with SR leukemia; above 100 µM in the assay on HT29 colon. The TGI with ACHN renal, in the assay on SF-295 CNS, with MOLT-4 leukemia and with MDA-MB-435 was above 100 µM each time.
Regarding `COC(=O)CCC1=C(CC(=O)OC)C(C)(OC)N=C1NC(=O)OCc1ccccc1` (stereo not given), the TGI in the assay with SK-OV-3 ovarian, with RXF 393 renal, in the assay with SN12C renal, with NCI-H522 lung, with SR leukemia and with HT29 colon was above 100 µM each time. Moreover, the TGI with ACHN renal, with SF-295 CNS, in the assay on MOLT-4 leukemia and in the assay on MDA-MB-435 was above 100 µM throughout.
As for `COC(=O)c1ccc(/C=C2\Oc3ccccc3C2=O)cc1`, the TGI in the assay on SK-OV-3 ovarian, in the assay with RXF 393 renal, in the assay on SN12C renal, with NCI-H522 lung, with SR leukemia and in the assay on HT29 colon was above 100 µM each time. Also, the TGI in the assay with ACHN renal, with SF-295 CNS, in the assay on MOLT-4 leukemia and with MDA-MB-435 was above 100 µM each time.
On to `COc1cc2c(cc1OC)C(=O)N(c1ccc(O)cc1)C2=O`, for which the TGI in the assay on SK-OV-3 ovarian, with RXF 393 renal, in the assay with SN12C renal, in the assay on NCI-H522 lung, in the assay on SR leukemia and in the assay on HT29 colon was above 100 µM each time. Also, the TGI with ACHN renal, in the assay on SF-295 CNS, with MOLT-4 leukemia and with MDA-MB-435 was above 100 µM throughout.
Consider `CCCC(CCC(N)=O)(CCC(N)=O)[N+](=O)[O-]`, for which the TGI in the assay on SK-OV-3 ovarian, with RXF 393 renal, in the assay on SN12C renal, in the assay with NCI-H522 lung, in the assay on SR leukemia and with HT29 colon was above 100 µM in each case. Also, the TGI with ACHN renal, in the assay on SF-295 CNS, in the assay on MOLT-4 leukemia and with MDA-MB-435 was above 100 µM throughout.
With `CCOC(=O)C1=C(O)C2C3CC4C2C(O)=C(C(=O)OCC)C2C1C3C42` (stereo not given), the TGI in the assay on SK-OV-3 ovarian, in the assay on RXF 393 renal, with SN12C renal, with NCI-H522 lung, with SR leukemia and in the assay with HT29 colon was above 100 µM each time. Further, the TGI with ACHN renal, with SF-295 CNS, in the assay with MOLT-4 leukemia and with MDA-MB-435 was above 100 µM in each case.
On to `c1cc2c(cc1NC1=NCCO1)OCO2`, for which the TGI in the assay on SK-OV-3 ovarian, in the assay with RXF 393 renal, in the assay on SN12C renal, in the assay with NCI-H522 lung, with SR leukemia and in the assay on HT29 colon was above 100 µM in each case. Moreover, the TGI in the assay with ACHN renal, in the assay on SF-295 CNS, in the assay on MOLT-4 leukemia and with MDA-MB-435 was above 100 µM in each case.
For `COc1cc(C(C)O)c(S(=O)(=O)CC(C)O)nn1` (stereo not given), the TGI in the assay with SK-OV-3 ovarian, with RXF 393 renal, with SN12C renal, in the assay on NCI-H522 lung, in the assay with SR leukemia and in the assay on HT29 colon was above 100 µM in each case. Besides, the TGI in the assay with ACHN renal, with SF-295 CNS, in the assay with MOLT-4 leukemia and in the assay with MDA-MB-435 was above 100 µM throughout.
In the case of `COc1ccc(-n2c(N)c(C#N)[nH]c2=O)cc1`, the TGI in the assay on SK-OV-3 ovarian, with RXF 393 renal, in the assay on SN12C renal, in the assay with NCI-H522 lung, in the assay on SR leukemia and in the assay with HT29 colon was above 10 µM throughout. The TGI in the assay on ACHN renal is above 10 µM; with SF-295 CNS, 7.91 µM; in the assay on MOLT-4 leukemia, above 10 µM; in the assay on MDA-MB-435, above 10 µM.
Consider `Cc1ccc(NC=O)c(-c2c(N)[nH]c(=S)[nH]c2=O)c1`, for which the TGI is 91.7 µM with SK-OV-3 ovarian; above 100 µM in the assay with RXF 393 renal; above 100 µM in the assay on SN12C renal; above 100 µM in the assay with NCI-H522 lung; above 100 µM in the assay on SR leukemia; above 100 µM in the assay on HT29 colon. In addition, the TGI in the assay on ACHN renal, in the assay on SF-295 CNS, in the assay on MOLT-4 leukemia and in the assay with MDA-MB-435 was above 100 µM each time.
Consider `NC(=O)N/N=C(/CC1C(=O)Oc2ccccc21)c1ccccc1O` (stereo not given), for which the TGI in the assay on SK-OV-3 ovarian is above 100 µM; in the assay with RXF 393 renal, above 100 µM; in the assay on SN12C renal, above 100 µM; in the assay on NCI-H522 lung, above 100 µM; in the assay on SR leukemia, 40.8 µM; with HT29 colon it was above 100 µM. The TGI with ACHN renal was above 100 µM; in the assay with SF-295 CNS, above 100 µM; with MOLT-4 leukemia, 50.9 µM; with MDA-MB-435, above 100 µM.
Take `O=C1/C(=C\c2cccc(Oc3ccccc3)c2)SC(c2ccccc2)N1c1ccccc1` (stereo not given): the TGI in the assay with SK-OV-3 ovarian is above 100 µM; with RXF 393 renal, above 100 µM; in the assay on SN12C renal, above 100 µM; with NCI-H522 lung, above 100 µM; in the assay on SR leukemia, 37.2 µM; with HT29 colon, above 100 µM. Besides, the TGI with ACHN renal, with SF-295 CNS, in the assay with MOLT-4 leukemia and in the assay on MDA-MB-435 was above 100 µM each time.
`CN1CN(c2ccccc2)C2(CCN(CC(C)(c3ccc(F)cc3)C3OCCCO3)CC2)C1=O` (stereo not given): the TGI worked out at 67.1 µM in the assay on SK-OV-3 ovarian; 39.5 µM in the assay on RXF 393 renal; 34.6 µM in the assay on SN12C renal; 33.6 µM in the assay on NCI-H522 lung; 30.4 µM in the assay with SR leukemia; 27.3 µM with HT29 colon. Besides, the TGI turned out to be 49.2 µM in the assay on ACHN renal, 33.4 µM in the assay on SF-295 CNS, 33.2 µM in the assay on MOLT-4 leukemia and 24.5 µM in the assay with MDA-MB-435.
For the molecule `Nc1nc(Cl)c(N)c(NCC2(CO)CC2)n1`, the TGI in the assay on SK-OV-3 ovarian, in the assay on RXF 393 renal, with SN12C renal, in the assay on NCI-H522 lung, with SR leukemia and in the assay on HT29 colon was above 100 µM in each case. The TGI with ACHN renal, in the assay on SF-295 CNS, in the assay on MOLT-4 leukemia and in the assay with MDA-MB-435 was above 100 µM each time.
